Test results taken from patent US20080078408A1, “URETHRAL CONDOMS AND LIQUID FEMALE CONDOMS” (priority 2005, published 2008).

Experiments:
sperms = assay: Spermicidal test: semen on a slide glass mixed with a drop of liquid, observed with an optical microscope; type: cell-based
From the text: The present inventor discovered a surprising fact for the first time that distilled water is an excellent spermicide.
EXPERIMENT 1: The fact that distilled water is an excellent spermicide was proven experimentally as follows: (1) One drop of semen was spread on a slide glass with a cotton swab and active movements of sperms were confirmed. (2) Upon mixing with a drop of distilled water, 100% of sperms stood still immediately. […] All sperms might be dead by explosive expansion of the sperm cell. While not wishing to be bound by any particular theory, the inventor believes that this is due to a lot of water smeared into the cell due to the difference in osmotic pressure between the cell and distilled water.
(3) Upon decreasing the viscosity by adding several drops of saline solution, the sperms regained their original activity.
EXPERIMENT 4: The fact that polymer solutions made from distilled water and water-soluble polymers exterminated sperms was verified experimentally as follows: (1) One drop of semen was spread on a slide glass with a cotton swab and active movements of sperms were confirmed. (2) Upon mixing with a drop of water-soluble polymer solution, all sperms came to a standstill without any movement in their heads or tails. […]

[1] = Physical blocking wall test: pigments and dye rubbed on coated, incised swine vaginal segments, then rinsed and scrubbed
From the text: EXPERIMENT 6: Two pigments whose particle size distributions correspond to sizes of STD-causing germs including HIV (diameter=125 nm) were chosen. The blue pigment (PIG-1) had the particle size distribution of 100-20,000 nm, while the violet pigment (PIG-2) had the particle size distribution of 30-500 nm. For the purpose of comparison, a blue dye ink (DYE) (molecular diameter=2.7 nm) was used as well. Instead of the human vagina, the swine vagina was used. […] Then, the vaginal segments in the left column were wetted with water, while those in the second, the third, the fourth and the fifth column were applied with corn syrup (SYRUP, 55% maltose), a composition made from polyvinyl alcohol (PVA-gel), a composition made from sodium carboxymethyl cellulose (SCMC-gel) and a composition made from hydroxyethyl cellulose (HEC-gel), respectively, as shown in FIG. 2B. After that, the blue pigment (PIG-1) was applied on the vaginal segments in the upper row, while the violet pigment (PIG-2) and the blue dye ink (DYE) were applied on the vaginal segments in the middle and the lower row, respectively, as shown in FIG. 2C. The pigments and the dye ink applied on the vaginal segments were rubbed 50 times violently with the index finger being pressed in an attempt to simulate the frictional movement of coitus. Thereafter that, they were scrubbed off and cleansed out with the vaginal scrubbing sponge of the present invention as shown in FIG. 6.

SMILES	sperm activity upon later addition of saline solution (sperms; saline solution added after mixing with the liquid)	sperms stood still immediately upon mixing (sperms; semen on slide glass mixed with drop(s) of the liquid)	pigments left on incisions ([1]; incisions, after rinsing and scrubbing)	blue dye ink (molecular diameter 2.7 nm) left after being rinsed and scrubbed ([1]; intact vaginal surfaces and incisions)	pigments (PIG-1, PIG-2; 30-20,000 nm) left on vaginal segments after rinsing ([1]; intact vaginal surfaces and incisions, rubbed 50 times, rinsed with running water, then scrubbed)
O [distilled water]	failed to show any activity	100%			
O [water]			remained heavily	remained heavily	still remained
